{
  "source": "PubChem BioAssay AID1963982",
  "about": "(Molecular Pharmacology Branch, DTP, NCI, 2024);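 also: spheroids exposed to compounds for seven days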;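 as to viability, T/C: 100% = DMSO vehicle control viability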",
  "system": "313798-341-R-J2-PDC spheroids, viability",
  "experiment": "Anticancer human tumor 313798-341-R-J2-PDC patient-derived cervical squamous cell carcinoma cell line growth inhibition [PI3K]",
  "details": "spheroids with HUVEC and MSC; for viability, T/C: stronger effect = lower value",
  "source_text": "Combinatorial screen of targeted agents with the PI3K inhibitors inavolisib, alpelisib, duvelisib, and copanlisib in multi-cell type tumor spheroids\nA high-throughput screen of multi-cell type tumor spheroids was designed to identify active combinations of targeted small molecules and PI3K pathway inhibitors. Complex spheroids include a stromal component modeled by human endothelial cells (HUVEC) and fibroblasts modeled by human mesenchymal stem cells (MSCs). The concentration ranges selected for each drug and investigational agent were based upon clinically achievable concentrations if the clinical Cmax of the agent was known.\nCompounds. The drugs and investigational agents: inavolisib (NSC800729), alpelisib (NSC765974), duvelisib (NSC772469), copanlisib (NSC816437), ipatasertib (NSC767898), afuresertib (NSC778305), talazoparib (NSC767125), sapanisertib (NSC764658), selumetinib (NSC741078), tovorafenib (DAY101, NSC766906), vemurafenib (NSC761431), ravoxertinib (NSC781343), sotorasib (NSC818433), MRTX1133 (NSC 836407), abemaciclib (NSC 768073), palbociclib (NSC758247), venetoclax (NSC 766270), SY5609 (NSC837396), enzalutamide (NSC755605), and darolutamide (NSC825331), were obtained from the National Cancer Institute (NCI) Developmental Therapeutics Program Chemical Repository. The FDA-approved anticancer drug set is available from the NCI Developmental Therapeutics Program. […] The stock solutions were prepared in dimethyl sulfoxide (DMSO, Sigma-Aldrich, St. Louis, MO, cat. D2650) at 800-fold the tested concentration and stored at -70 degrees C prior to their use. All drugs and investigational agents were tested over a range starting from a high concentration at or near the clinical Cmax and decreasing in half-log increments. If the clinical Cmax for an agent had not been determined, the highest concentration tested was 10 microM.\nCell Culture. All cells were maintained in an incubator at 37 degrees C and 5% CO2 with 95% humidity. The PDC lines were cultured according to standard operating procedures established by the NCI PDMR (https://pdmr.cancer.gov/sops/default.htm). All PDCs were thawed and cultured in Matrigel-coated flasks prepared with a working solution of 1X Ham's F-12 nutrient mix, without supplementation (Invitrogen, Waltham, MA, cat. 11765054), 100 U/mL penicillin-streptomycin (Invitrogen, cat. 15140122), and 2.5% Matrigel (Corning Inc., Corning, NY, cat. 354248) for the first three passages. The 354836-022-R-J1-PDC, 475296-252-R-J1-PDC, and 997726-040-R-J2-PDC lines were cultured in 6A media, which includes advanced DMEM/F-12 (Thermo Fisher Scientific, cat. 12634028), 10 mM HEPES (Thermo Fisher Scientific, cat. 15630080), 1X GlutaMAX supplement (Thermo Fisher Scientific, cat. 35050061), 0.1 mg/mL primocin (InvivoGen, San Diego, CA, cat. ant-pm-2), 10% defined fetal bovine serum, heat inactivated (HyClone Laboratories Inc., Logan, UT, cat. SH30070.03HI), 50% L-WRN conditioned media (ATCC, cat. CRL-3276), 1.25 mM N-Acetyl-L-cysteine (Sigma-Aldrich, cat. A9165), 10 mM nicotinamide (Sigma-Aldrich, cat. N0636), 1X B-27 supplement (Thermo Fisher Scientific, cat. 17504044), 1X N-2 supplement (Thermo Fisher Scientific, cat. 17502048), and 10 microM Y-27632 dihydrochloride (Tocris Bioscience, Bristol, United Kingdom, cat. 1254). The 624824-186-R-J2-PDC line was cultured in 6C/Colon 1B media, which includes all 6A media components plus 50 ng/mL human EGF recombinant protein (Thermo Fisher Scientific, cat. PHG0311). […]",
  "data": [
    {"smiles": "C#Cc1c(F)ccc2cc(O)cc(-c3ncc4c(N5CC6CCC(C5)N6)nc(OCC56CCCN5CC(F)C6)nc4c3F)c12", "note": "(stereo unspecified)", "values": [
      {"measurement": "viability, T/C", "setting": "compound 0.0316 µM", "value": "102% [middle of 4 runs]"},
      {"measurement": "viability, T/C", "setting": "compound 0.1 µM", "value": "105% [middle of 4 runs]"},
      {"measurement": "viability, T/C", "setting": "compound 0.316 µM", "value": "108% [middle of 4 runs]"},
      {"measurement": "viability, T/C", "setting": "compound 1 µM", "value": "98.5% [middle of 4 runs]"},
      {"measurement": "viability, T/C", "setting": "compound 3.16 µM", "value": "106% [middle of 4 runs]"},
      {"measurement": "viability, T/C", "setting": "compound 10 µM", "value": "95.2% [middle of 4 runs]"},
      {"measurement": "IC50", "setting": "curve of compound", "value": "> 10000", "unit": "nM"}
    ]},
    {"smiles": "Cn1ncc(Cl)c1-c1cc(C(=O)NC(CN)Cc2cccc(F)c2)sc1Cl", "note": "(stereo unspecified)", "values": [
      {"measurement": "viability, T/C", "setting": "compound 0.0316 µM", "value": "105% [middle of 4 runs]"},
      {"measurement": "viability, T/C", "setting": "compound 0.1 µM", "value": "97.5% [middle of 4 runs]"},
      {"measurement": "viability, T/C", "setting": "compound 0.316 µM", "value": "79.1% [middle of 4 runs]"},
      {"measurement": "viability, T/C", "setting": "compound 1 µM", "value": "49.9% [middle of 4 runs]"},
      {"measurement": "viability, T/C", "setting": "compound 3.16 µM", "value": "34.7% [middle of 4 runs]"},
      {"measurement": "viability, T/C", "setting": "compound 10 µM", "value": "34.5% [middle of 4 runs]"},
      {"measurement": "IC50", "setting": "curve of compound", "value": "996 nM [middle of 4 runs]"}
    ]},
    {"smiles": "Cn1cnc2c(F)c(Nc3ccc(Br)cc3Cl)c(C(=O)NOCCO)cc21", "note": "+ CC(Nc1ccc2c(c1)OCCn1cc(N3C(=O)OCC3C(F)F)nc1-2)C(N)=O", "values": [
      {"measurement": "IC50", "setting": "curve of first compound, second compound 0.00316 µM", "value": 1200, "unit": "nM"},
      {"measurement": "IC50", "setting": "curve of first compound, second compound 0.01 µM", "value": 841, "unit": "nM"},
      {"measurement": "IC50", "setting": "curve of first compound, second compound 0.0316 µM", "value": 547, "unit": "nM"},
      {"measurement": "IC50", "setting": "curve of first compound, second compound 0.1 µM", "value": 265, "unit": "nM"},
      {"measurement": "IC50", "setting": "curve of first compound, second compound 0.316 µM", "value": 26.1, "unit": "nM"},
      {"measurement": "IC50", "setting": "curve of first compound, second compound 1 µM", "value": "< 9.49", "unit": "nM"},
      {"measurement": "viability, T/C", "setting": "second compound 0.00316 µM, first compound 0.00949 µM", "value": 87.2, "unit": "%"},
      {"measurement": "viability, T/C", "setting": "second compound 0.00316 µM, first compound 0.03 µM", "value": 107, "unit": "%"},
      {"measurement": "viability, T/C", "setting": "second compound 0.00316 µM, first compound 0.0949 µM", "value": 97.8, "unit": "%"},
      {"measurement": "viability, T/C", "setting": "second compound 0.00316 µM, first compound 0.3 µM", "value": 81.5, "unit": "%"},
      {"measurement": "viability, T/C", "setting": "second compound 0.00316 µM, first compound 0.949 µM", "value": 57.9, "unit": "%"},
      {"measurement": "viability, T/C", "setting": "second compound 0.00316 µM, first compound 3 µM", "value": 23.4, "unit": "%"},
      {"measurement": "viability, T/C", "setting": "second compound 0.01 µM, first compound 0.00949 µM", "value": 95.6, "unit": "%"},
      {"measurement": "viability, T/C", "setting": "second compound 0.01 µM, first compound 0.03 µM", "value": 103, "unit": "%"},
      {"measurement": "viability, T/C", "setting": "second compound 0.01 µM, first compound 0.0949 µM", "value": 96.1, "unit": "%"},
      {"measurement": "viability, T/C", "setting": "second compound 0.01 µM, first compound 0.3 µM", "value": 84.2, "unit": "%"},
      {"measurement": "viability, T/C", "setting": "second compound 0.01 µM, first compound 0.949 µM", "value": 46, "unit": "%"},
      {"measurement": "viability, T/C", "setting": "second compound 0.01 µM, first compound 3 µM", "value": 20.8, "unit": "%"},
      {"measurement": "viability, T/C", "setting": "second compound 0.0316 µM, first compound 0.00949 µM", "value": 97.6, "unit": "%"},
      {"measurement": "viability, T/C", "setting": "second compound 0.0316 µM, first compound 0.03 µM", "value": 92.8, "unit": "%"},
      {"measurement": "viability, T/C", "setting": "second compound 0.0316 µM, first compound 0.0949 µM", "value": 92.9, "unit": "%"},
      {"measurement": "viability, T/C", "setting": "second compound 0.0316 µM, first compound 0.3 µM", "value": 60.8, "unit": "%"},
      {"measurement": "viability, T/C", "setting": "second compound 0.0316 µM, first compound 0.949 µM", "value": 38.4, "unit": "%"},
      {"measurement": "viability, T/C", "setting": "second compound 0.0316 µM, first compound 3 µM", "value": 11.8, "unit": "%"},
      {"measurement": "viability, T/C", "setting": "second compound 0.1 µM, first compound 0.00949 µM", "value": 79.4, "unit": "%"},
      {"measurement": "viability, T/C", "setting": "second compound 0.1 µM, first compound 0.03 µM", "value": 69.9, "unit": "%"},
      {"measurement": "viability, T/C", "setting": "second compound 0.1 µM, first compound 0.0949 µM", "value": 66.2, "unit": "%"},
      {"measurement": "viability, T/C", "setting": "second compound 0.1 µM, first compound 0.3 µM", "value": 46, "unit": "%"},
      {"measurement": "viability, T/C", "setting": "second compound 0.1 µM, first compound 0.949 µM", "value": 29.9, "unit": "%"},
      {"measurement": "viability, T/C", "setting": "second compound 0.1 µM, first compound 3 µM", "value": 4.42, "unit": "%"},
      {"measurement": "viability, T/C", "setting": "second compound 0.316 µM, first compound 0.00949 µM", "value": 57.9, "unit": "%"},
      {"measurement": "viability, T/C", "setting": "second compound 0.316 µM, first compound 0.03 µM", "value": 46.5, "unit": "%"},
      {"measurement": "viability, T/C", "setting": "second compound 0.316 µM, first compound 0.0949 µM", "value": 41.3, "unit": "%"},
      {"measurement": "viability, T/C", "setting": "second compound 0.316 µM, first compound 0.3 µM", "value": 28.8, "unit": "%"},
      {"measurement": "viability, T/C", "setting": "second compound 0.316 µM, first compound 0.949 µM", "value": 16.7, "unit": "%"},
      {"measurement": "viability, T/C", "setting": "second compound 0.316 µM, first compound 3 µM", "value": 2.27, "unit": "%"},
      {"measurement": "viability, T/C", "setting": "second compound 1 µM, first compound 0.00949 µM", "value": 35.4, "unit": "%"},
      {"measurement": "viability, T/C", "setting": "second compound 1 µM, first compound 0.03 µM", "value": 34.2, "unit": "%"},
      {"measurement": "viability, T/C", "setting": "second compound 1 µM, first compound 0.0949 µM", "value": 30.1, "unit": "%"},
      {"measurement": "viability, T/C", "setting": "second compound 1 µM, first compound 0.3 µM", "value": 19.6, "unit": "%"},
      {"measurement": "viability, T/C", "setting": "second compound 1 µM, first compound 0.949 µM", "value": 9.79, "unit": "%"},
      {"measurement": "viability, T/C", "setting": "second compound 1 µM, first compound 3 µM", "value": 1.11, "unit": "%"}
    ]}
  ]
}
